How the values were obtained:
HepG2 cells = assay: Uptake of Dil-LDL by HepG2 cells; assay type: cell-based; conditions: 0.5 μM, 24 hours, Dil-LDL 6 μg/ml for last 4 hours, FIG. 5
Protocol: To determine if activation of LDL-receptor promoter also translated into an increase in functional LDL receptors, an LDL uptake assay was set up. HepG2 cells seeded at 8 10^4 cells per 8 well Biocoat slides (Beckton Dickinson) were treated with SCAP antagonist or 25OH-cholesterol for 20h and then incubated with 6 μg/ml of fluorescent Dil-LDL for 4 hours. The amount of fluorescent dye that accumulated in the lysosomes was quantified by fluorescence microscopy using Axioplan-2 Zeiss microscope equipped with DXC950P video camera (Sony) and red fluorescence filters.
HepG2 cells were treated for 24 hours in the presence of 0.5 μM Example 1 or 10 μM 25OH-cholesterol. Dil-LDL (6 μg/ml) were added 4 hours before the end of the incubation. Cells were washed and observed by fluorescence microscopy using rhodamine filters and video camera with fixed settings.

human SREBP-2 = assay: Western blot analysis of the proteolytic maturation of SREBP-2 in HepG2 cells; assay type: cell-based; conditions: 1 μM, 18 hours
Protocol: The involvement of the SREBP pathway was confirmed by Western Blot immunodetection of precursor and mature forms of human SREBP-2.
HepG2 cells were seeded in 150 cm^2 flasks at 8×10^6 cells and transfected with 10 μg of pTK-HSV-BP2 using Fugene 6 and incubated for 20 h before addition of 1 μM of example 1 or vehicle. After 18 h of incubation, membrane fraction and nuclear extracts were obtained using the method described by Hua, X. et al., J. Biol. Chem. 270: 29422-27 (1995).
Proteins (20 μg/load) were separated on 8% SDS-PAGE and blotted onto BA 83 nitrocellulose membrane (Schleisher & Schuell). The HSV tag present in the amino terminus of SREBP-2 was detected using 0.2 μg/ml of anti-HSV antibodies after saturation with 10% non-fat milk.
HepG2 cells were transfected (FIG. 4, lane b-e) or not transfected (FIG. 4, lane a) with pTK-HSV-BP2 vector encoding human SREBP-2 preceded by HSV tag. Cells were treated for 18 hours with Example 1 (1 μM) (lane c, d) or vehicle (lane a, b, e) and nuclear extract (lane d, e) and membrane (lane a-c) were isolated and analysed by western blotting using anti-HSV antibodies.

[1] = system: golden Syrian hamster previously fed with a cholesterol rich diet; assay: Lipoprotein cholesterol profile by gel filtration in cholesterol-fed hamsters (FIG. 7); assay type: in vivo; conditions: 5 mg/kg oral once a day for 3 days
Protocol: The in vivo activity of SCAP antagonist was determined in the golden Syrian hamster previously fed with a cholesterol rich diet. Male Syrian golden hamsters (Janvier, France) were kept on a 12 h light-dark cycle. Animals (7 weeks age, 150 g) were fed for 2 weeks with a high cholesterol diet containing 0.2% cholesterol plus 10% coconut oil. Animals (n=5 per group) were then treated orally with vehicle, (0.5% methylcellulose, 5% Tween 80) or Example 1 at 1, 5 or 20 mg/kg in the vehicle, once a day for 3 days.
4h after the last treatment, animals were anesthetized, blood was collected and serum was prepared by centrifugation. Total cholesterol was determined using a enzymatic assay kit (Biomerieux, France). Lipoproteins were separated by ultracentrifugation using a single KBr concentration (density 1.063). Cholesterol and triglycerides associated with the upper phase (corresponding to VLDL +LDL lipoproteins) and cholesterol associated with the lower phase (corresponding to the HDL fraction) were determined using the enzymatic assays kits. Apolipoprotein B100 associated with VLDL and LDL lipoprotein fraction were analysed by SDS-PAGE and Coomassie blue staining. Lipoproteins were also separated by high-performance gel filtration chromatography with on-line colorimetric determination of cholesterol. Lipoprotein separation was performed on a single superose 6HR column (Pharmacia) with an elution buffer consisting of 10 mM tris, 1 mM EDTA and 150 mM NaCl adjusted at pH 7.4. Cholesterol was measured on line using the RTU enzymatic assay (Biomerieux). The column was calibrated using human lipoproteins and the various peaks in cholesterol profiles are designated VLDL, LDL and HDL for simplicity.
Cholesterol-fed animals were treated for 3 days with Example 1 at 1 and 20 mg/kg. […] In another experiment, lipoproteins were separated by gel filtration and cholesterol content was quantified on-line. As shown in FIG. 7 Example 1 at […] strongly reduces atherogenic particles: 79% reduction of VLDL cholesterol and 60% reduction of LDL-cholesterol.

[2] = system: human LDL-receptor promoter; assay: LDL-receptor promoter luciferase reporter assay in transfected HepG2 cells; assay type: cell-based
From the text: The human LDL-receptor promoter named p-588 corresponding to nucleotide −588 to +91 relative to the major transcription site was cloned by PCR from human genomic DNA (Clonetech) using SEQ ID NO: 3 […] and SEQ ID NO: 4 […] primers. and inserted into pGL3-basic vector (Promega) at Hind-III and Nco-I sites. The sequencing was identical to published promoter (Genbank L29401). Shorter promoters were obtained by PCR sub-cloning using Kpn-I and Nar-I sites. The primer SEQ ID NO: 5 […] corresponding to luciferase coding sequence was used as reverse primer for all constructs. The following primers were used to produce respectively p-149, p-118, p-70, p-53 and p-31 promoters: SEQ ID NO: 6 […], SEQ ID NO: 7 […], SEQ ID NO: 8 […], SEQ ID NO: 9 […] and SEQ ID NO: 10 […]. A vector containing the 38 bp of the minimal promoter of adenovirus Major Late Promoter (Ham. J. et al., EMBO, 10: 2931-2940 (1991)) was produced using Bgl-II and Hind-III site in pGL3-basic. Four repeats of the SRE sequence present on the human LDL-receptor promoter were introduced in p-MLP vector using Bgl-II site, SEQ ID NO: 11 […] and complementary oligo. HepG2 cells seeded the previous day at 3 10^5 cells per well of 24 well plate were transfected with 1 μg of LDL-promoter containing vector together with p-RL-TK control vector (Promega) using Fugene 6 (Boehringer). HepG2 cells were incubated for 28 hours in the presence of SCAP antagonist and/or 25OH-cholesterol. Firefly luciferase and Renila activity were measured using Dual Luciferase Assay Kit (Promega) and Lumistar (BMG). The ratio of Firefly luciferase to Renila were used to calculate mean and S.D. of tetraplicates.
A vector containing the human LDL-receptor promoter coupled to Firefly luciferase reporter was made. A mixture of the LDL-receptor vector and control pRL-TK vector was used to transfect HepG2 cells. Cells were incubated with 25OH-cholesterol (0.2 or 1 μM) alone or in the presence (black bars) or absence (gray bars) of Example 1 (1 μM) for 28 hours before measurement of luciferase and renila activity. The ratio of luciferase activity versus renila activity was calculated and the mean and SD of triplicates were expressed as percent of control.
Shortening the LDL-receptor promoter in the same reporter vector modifies the relative luciferase activity (FIG. 3A).

**Q.** Which “LDL uptake (Dil-LDL fluorescence)” value (HepG2 cells) does the source give for `CCOc1cc(CC)ccc1C1CCN(CCCCNC(=O)c2ccc(NC(=O)c3ccc(Cl)cc3)cc2)CC1` [Example 1, 4-(4-Chloro-benzoylamino)-N-{4-[4-(2-ethoxy-4-ethyl-phenyl)-piperidin-1-yl]-butyl}-benzamide] here?
**A.** markedly increased the LDL uptake

**Q.** What about the “amount of SREBP-2 precursor form in the membrane” value (human SREBP-2; HepG2 transfected with pTK-HSV-BP2, FIG. 4) of the same molecule?
**A.** reduces the amount of SREBP-2 precursor form present in the membrane

**Q.** And the “amount of mature SREBP-2 in the nucleus” value (human SREBP-2; HepG2 transfected with pTK-HSV-BP2, nuclear extract, FIG. 4)?
**A.** strongly increases the amount of mature SREBP-2 in the nucleus

**Q.** What about the “increase of cholesterol contained in HDL particles” value [1] of the same molecule?
**A.** 25%

**Q.** What about the “reduction of LDL-cholesterol” value [1] of the same molecule?
**A.** 60%

**Q.** What about the “reduction of VLDL cholesterol” value [1] of the same molecule?
**A.** 79%

**Q.** What about the “LDL-receptor promoter activity on co-treatment with 25OH-cholesterol” value ([2]; 1 μM with 25OH-cholesterol 0.2 or 1 μM, 28 hours, HepG2, FIG. 2) of the same molecule?
**A.** can at least partially antagonise the effects of 25OH-cholesterol on SCAP

**Q.** What about the “LDL-receptor promoter activity (luciferase/renila ratio)” value ([2]; 1 μM, 28 hours, HepG2, FIG. 2) of the same molecule?
**A.** acts as a transcriptional activators

**Q.** What about the “response of minimal adenovirus Major Late promoter vector (p-MLP)” value ([2]; 1 μM, HepG2, FIG. 3C) of the same molecule?
**A.** fails to respond

**Q.** And the “response of p-MLP vector with 4 copies of SRE” value ([2]; 1 μM, HepG2, FIG. 3C)?
**A.** sufficient to confer the responsiveness

**Q.** And the “reporter expression from shortened LDL-receptor promoter constructs” value ([2]; 1 μM, HepG2, p-149 to p-31 constructs, FIG. 3B left)?
**A.** promote expression only for vectors possessing the SRE sequence
